{"source": "paper PMC5931096", "about": "“A Phase I study of the novel immunomodulatory agent PG545 (pixatimod) in subjects with advanced solid tumours” (British Journal of Cancer, 2018)", "assay": "Phase I dose-escalation: safety, tolerability, DLT and MTD of weekly 1-h IV infusion", "type": "in vivo", "settings": "Safety Set", "method": "The study was an open-label, multicentre, phase 1 dose-escalation study using a 3 + 3 design. The primary objective was to determine the MTD of weekly administered PG545 via IV infusion. Secondary objectives were to characterize safety, tolerability, clinical activity, PK and PD biomarkers.\nPatients continued treatment until disease progression, unacceptable toxicity or withdrawal (either voluntarily or investigator-decision).\nAll patients were assessed for safety, those who received at least one dose of PG545 were evaluated for efficacy. Safety assessment included the incidence of all adverse events (AEs), irrespective of relationship to study drug, according to the National Cancer Institute Common Terminology Criteria for Adverse Events, version 4.0, and the incidence of patients experiencing dose modifications and/or premature discontinuation of study drug. Dose-limiting toxicities (DLTs) used to determine the MTD were defined as occurring during Cycle 1 of treatment only and related to PG545 according to investigator assessment. If no DLT occurred in the first three subjects, the next three-subject cohort was enrolled at the next highest available dose level. If a single DLT occurred, an additional three subjects was enrolled at the same dose level. Dose escalation continued until two subjects of the cohort experienced a DLT; this was defined as the toxic dose level. The dose-escalation phase was completed and MTD determined by reducing the dose to the next lowest dose compared to the toxic dose and expanding this cohort to at least 6 subjects.", "data": [{"smiles": "CC(C)CCC[C@@H](C)[C@H]1CC[C@H]2[C@@H]3CC[C@H]4C[C@@H](O[C@@H]5O[C@H](COS(=O)(=O)O)[C@@H](O[C@H]6O[C@H](COS(=O)(=O)O)[C@@H](O[C@H]7O[C@H](COS(=O)(=O)O)[C@@H](O[C@H]8O[C@H](COS(=O)(=O)O)[C@@H](OS(=O)(=O)O)[C@H](OS(=O)(=O)O)[C@H]8OS(=O)(=O)O)[C@H](OS(=O)(=O)O)[C@H]7OS(=O)(=O)O)[C@H](OS(=O)(=O)O)[C@H]6OS(=O)(=O)O)[C@H](OS(=O)(=O)O)[C@H]5OS(=O)(=O)O)CC[C@]4(C)[C@H]3CC[C@]12C", "note": "[PG545]", "values": [{"measurement": "TEAE: Blood creatinine increased", "setting": "Mild, Unrelated", "result": "1 (4.3%)"}, {"measurement": "TEAE: Chest discomfort", "setting": "Mild, Unrelated", "result": "1 (4.3%)"}, {"measurement": "TEAE: Chest pain", "setting": "Mild, Unrelated", "result": "2 (8.7%)"}, {"measurement": "TEAE: Constipation", "setting": "Mild, Unrelated", "result": "5 (21.7%)"}, {"measurement": "TEAE: Cough", "setting": "Mild, Unrelated", "result": "2 (8.7%)"}, {"measurement": "TEAE: Decreased appetite", "setting": "Mild, Unrelated", "result": "1 (4.3%)"}, {"measurement": "TEAE: Deep vein thrombosis", "setting": "Mild, Unrelated", "result": "1 (4.3%)"}, {"measurement": "TEAE: Depression", "setting": "Mild, Unrelated", "result": "3 (13.0%)"}, {"measurement": "TEAE: Diarrhoea", "setting": "Mild, Unrelated", "result": "3 (13.0%)"}, {"measurement": "TEAE: Dry mouth", "setting": "Mild, Unrelated", "result": "1 (4.3%)"}, {"measurement": "TEAE: Dry skin", "setting": "Mild, Unrelated", "result": "1 (4.3%)"}, {"measurement": "TEAE: Dyspepsia", "setting": "Mild, Unrelated", "result": "1 (4.3%)"}, {"measurement": "TEAE: Dyspnoea", "setting": "Mild, Unrelated", "result": "5 (21.7%)"}, {"measurement": "TEAE: Fatigue", "setting": "Mild, Unrelated", "result": "2 (8.7%)"}, {"measurement": "TEAE: Fungal infection", "setting": "Mild, Unrelated", "result": "1 (4.3%)"}, {"measurement": "TEAE: Gastroesophageal reflux disease", "setting": "Mild, Unrelated", "result": "1 (4.3%)"}, {"measurement": "TEAE: Gastrointestinal disorders", "setting": "Mild, Unrelated", "result": "13 (56.5%)"}, {"measurement": "TEAE: General disorders and administration site conditions", "setting": "Mild, Unrelated", "result": "7 (30.4%)"}, {"measurement": "TEAE: Haematochezia", "setting": "Mild, Unrelated", "result": "1 (4.3%)"}, {"measurement": "TEAE: Headache", "setting": "Mild, Unrelated", "result": "1 (4.3%)"}, {"measurement": "TEAE: Hypercalcaemia", "setting": "Mild, Unrelated", "result": "1 (4.3%)"}, {"measurement": "TEAE: Hypertension (second line of this name)", "setting": "Mild, Unrelated", "result": "1 (4.3%)"}, {"measurement": "TEAE: Hypokalaemia", "setting": "Mild, Unrelated", "result": "1 (4.3%)"}, {"measurement": "TEAE: Infections and infestations", "setting": "Mild, Unrelated", "result": "4 (17.4%)"}, {"measurement": "TEAE: Influenza like illness", "setting": "Mild, Unrelated", "result": "1 (4.3%)"}, {"measurement": "TEAE: Insomnia", "setting": "Mild, Unrelated", "result": "3 (13.0%)"}, {"measurement": "TEAE: Investigations", "setting": "Mild, Unrelated", "result": "3 (13.0%)"}, {"measurement": "TEAE: Lethargy", "setting": "Mild, Unrelated", "result": "2 (8.7%)"}, {"measurement": "TEAE: Malaise", "setting": "Mild, Unrelated", "result": "1 (4.3%)"}, {"measurement": "TEAE: Metabolism and nutritional disorders", "setting": "Mild, Unrelated", "result": "2 (8.7%)"}, {"measurement": "TEAE: Mucosal inflammation", "setting": "Mild, Unrelated", "result": "2 (8.7%)"}, {"measurement": "TEAE: Musculoskeletal and connective tissue disorders", "setting": "Mild, Unrelated", "result": "5 (21.7%)"}, {"measurement": "TEAE: Musculoskeletal chest pain", "setting": "Mild, Unrelated", "result": "1 (4.3%)"}, {"measurement": "TEAE: Nausea", "setting": "Mild, Unrelated", "result": "3 (13.0%)"}, {"measurement": "TEAE: Nervous system disorders", "setting": "Mild, Unrelated", "result": "5 (21.7%)"}, {"measurement": "TEAE: Neutrophil count increased", "setting": "Mild, Unrelated", "result": "1 (4.3%)"}, {"measurement": "TEAE: Onycholysis", "setting": "Mild, Unrelated", "result": "1 (4.3%)"}, {"measurement": "TEAE: Oropharyngeal pain", "setting": "Mild, Unrelated", "result": "1 (4.3%)"}, {"measurement": "TEAE: Pain", "setting": "Mild, Unrelated", "result": "1 (4.3%)"}, {"measurement": "TEAE: Pain in extremity", "setting": "Mild, Unrelated", "result": "2 (8.7%)"}, {"measurement": "TEAE: Pruritus", "setting": "Mild, Unrelated", "result": "1 (4.3%)"}, {"measurement": "TEAE: Psychiatric disorders", "setting": "Mild, Unrelated", "result": "5 (21.7%)"}, {"measurement": "TEAE: Respiratory, thoracic and mediastinal disorders", "setting": "Mild, Unrelated", "result": "6 (26.1%)"}, {"measurement": "TEAE: Skin and subcutaneous tissue disorders", "setting": "Mild, Unrelated", "result": "3 (13.0%)"}, {"measurement": "TEAE: Upper respiratory tract infection", "setting": "Mild, Unrelated", "result": "2 (8.7%)"}, {"measurement": "TEAE: Vascular disorders", "setting": "Mild, Unrelated", "result": "2 (8.7%)"}, {"measurement": "TEAE: Vomiting", "setting": "Mild, Unrelated", "result": "5 (21.7%)"}, {"measurement": "TEAE: Vulvovaginal candidiasis", "setting": "Mild, Unrelated", "result": "1 (4.3%)"}, {"measurement": "TEAE: White blood cell count increased", "setting": "Mild, Unrelated", "result": "1 (4.3%)"}, {"measurement": "TEAE: aPTT prolonged", "setting": "Mild, Unrelated", "result": "1 (4.3%)"}, {"measurement": "TEAE: At least one event", "setting": "Moderate, Related", "result": "13 (56.5%)"}, {"measurement": "TEAE: Chills", "setting": "Moderate, Related", "result": "2 (8.7%)"}, {"measurement": "TEAE: Constipation", "setting": "Moderate, Related", "result": "1 (4.3%)"}, {"measurement": "TEAE: Decreased appetite", "setting": "Moderate, Related", "result": "2 (8.7%)"}, {"measurement": "TEAE: Dehydration", "setting": "Moderate, Related", "result": "1 (4.3%)"}, {"measurement": "TEAE: Diarrhoea", "setting": "Moderate, Related", "result": "1 (4.3%)"}, {"measurement": "TEAE: Dyspnoea", "setting": "Moderate, Related", "result": "1 (4.3%)"}, {"measurement": "TEAE: Fall", "setting": "Moderate, Related", "result": "1 (4.3%)"}, {"measurement": "TEAE: Fatigue", "setting": "Moderate, Related", "result": "2 (8.7%)"}, {"measurement": "TEAE: GGT increased", "setting": "Moderate, Related", "result": "1 (4.3%)"}, {"measurement": "TEAE: Gastrointestinal disorders", "setting": "Moderate, Related", "result": "4 (17.4%)"}, {"measurement": "TEAE: General disorders and administration site conditions", "setting": "Moderate, Related", "result": "4 (17.5%)"}, {"measurement": "TEAE: Hypercholesterolaemia", "setting": "Moderate, Related", "result": "2 (8.7%)"}, {"measurement": "TEAE: Hyperlipidaemia", "setting": "Moderate, Related", "result": "1 (4.3%)"}, {"measurement": "TEAE: Hypertension", "setting": "Moderate, Related", "result": "2 (8.7%)"}, {"measurement": "TEAE: Infusion related reaction", "setting": "Moderate, Related", "result": "4 (17.4%)"}, {"measurement": "TEAE: Injury, poisoning and procedural complications", "setting": "Moderate, Related", "result": "5 (21.7%)"}, {"measurement": "TEAE: Investigations", "setting": "Moderate, Related", "result": "1 (4.3%)"}, {"measurement": "TEAE: Lethargy", "setting": "Moderate, Related", "result": "1 (4.3%)"}, {"measurement": "TEAE: Metabolism and nutritional disorders", "setting": "Moderate, Related", "result": "4 (17.4%)"}, {"measurement": "TEAE: Nausea", "setting": "Moderate, Related", "result": "1 (4.3%)"}, {"measurement": "TEAE: Nervous system disorders", "setting": "Moderate, Related", "result": "1 (4.3%)"}, {"measurement": "TEAE: Pyrexia", "setting": "Moderate, Related", "result": "1 (4.3%)"}, {"measurement": "TEAE: Respiratory, thoracic and mediastinal disorders", "setting": "Moderate, Related", "result": "1 (4.3%)"}, {"measurement": "TEAE: Vascular disorders", "setting": "Moderate, Related", "result": "2 (8.7%)"}, {"measurement": "TEAE: Vomiting", "setting": "Moderate, Related", "result": "1 (4.3%)"}, {"measurement": "TEAE: AST increased", "setting": "Moderate, Unrelated", "result": "1 (4.3%)"}, {"measurement": "TEAE: Abdominal distension", "setting": "Moderate, Unrelated", "result": "1 (4.3%)"}, {"measurement": "TEAE: Abdominal pain", "setting": "Moderate, Unrelated", "result": "3 (13.0%)"}, {"measurement": "TEAE: Abdominal pain lower", "setting": "Moderate, Unrelated", "result": "1 (4.3%)"}, {"measurement": "TEAE: Abdominal pain upper", "setting": "Moderate, Unrelated", "result": "2 (8.7%)"}, {"measurement": "TEAE: Anaemia", "setting": "Moderate, Unrelated", "result": "2 (8.7%)"}, {"measurement": "TEAE: Arthralgia", "setting": "Moderate, Unrelated", "result": "1 (4.3%)"}, {"measurement": "TEAE: At least one event", "setting": "Moderate, Unrelated", "result": "14 (60.9%)"}, {"measurement": "TEAE: Back pain", "setting": "Moderate, Unrelated", "result": "3 (13.0%)"}, {"measurement": "TEAE: Blood ALP increased", "setting": "Moderate, Unrelated", "result": "1 (4.3%)"}, {"measurement": "TEAE: Blood and lymphatic system disorders", "setting": "Moderate, Unrelated", "result": "2 (8.7%)"}, {"measurement": "TEAE: Blood bilirubin increased", "setting": "Moderate, Unrelated", "result": "1 (4.3%)"}, {"measurement": "TEAE: Constipation", "setting": "Moderate, Unrelated", "result": "1 (4.3%)"}, {"measurement": "TEAE: Cough", "setting": "Moderate, Unrelated", "result": "1 (4.3%)"}, {"measurement": "TEAE: Decreased appetite", "setting": "Moderate, Unrelated", "result": "3 (13.0%)"}, {"measurement": "TEAE: Depression", "setting": "Moderate, Unrelated", "result": "1 (4.3%)"}, {"measurement": "TEAE: Diplopia", "setting": "Moderate, Unrelated", "result": "1 (4.3%)"}, {"measurement": "TEAE: Dry mouth", "setting": "Moderate, Unrelated", "result": "1 (4.3%)"}, {"measurement": "TEAE: Dyspnoea", "setting": "Moderate, Unrelated", "result": "3 (13.0%)"}, {"measurement": "TEAE: Eye disorders", "setting": "Moderate, Unrelated", "result": "1 (4.3%)"}, {"measurement": "TEAE: Fatigue", "setting": "Moderate, Unrelated", "result": "3 (13.0%)"}, {"measurement": "TEAE: GGT increased", "setting": "Moderate, Unrelated", "result": "1 (4.3%)"}, {"measurement": "TEAE: Gait disturbance", "setting": "Moderate, Unrelated", "result": "1 (4.3%)"}, {"measurement": "TEAE: Gastrointestinal disorders", "setting": "Moderate, Unrelated", "result": "6 (26.1%)"}]}]}
